Experimental findings from patent US4935424A, “4 or 5-(substituted piperazinylalkyl)-2-aminothiazoles as antipsychotic agents” (priority 1988, dated 1990) are described below.

Where two headings read alike, the source gives them in different places. Where only a bound is given, the exact number is not on record here.

One assay has as its system brain dopamine synthesis. As to the kind of experiment: Inhibition of brain dopamine synthesis in rats. The following applies: Rattus norvegicus, IP. The class given is in vivo. How it is done:
(§1) Thus, the compounds of Formula I were tested for their ability to inhibit locomotor activity in mice according to the assay described in Pharmacol. Biochem. Behav. 1978 (8) 97; for their ability to inhibit haloperidol binding in a receptor binding assay described in Mol. Pharmacol. 1976 (12), 800; for their ability to inhibit brain dopamine synthesis in rats according to the protocol described in Naumyn-Schmiedeberg's Arch. Pharmacol., 1976 (296) 5; and for their ability to inhibit dopamine neuron firing in rats according to the protocol described in Nature New Biology, 1973 (245) 123.

Assay [1] relates to locomotor activity in mice. As to the kind of experiment: Inhibition of locomotor activity in mice. In kind it is in vivo. As to conditions: Mus musculus, IP. How it is done: as §1
For the next assay, the target named is T1, haloperidol binding (Bos taurus, UniProt P20288).
T1 construct: from tissue
As to the kind of experiment: Inhibition of haloperidol binding in a receptor binding assay. As to conditions: for inhibition at 10 µM: at 10,000 nM. How it is done: as §1

The test system of the next assay is dopamine neuron firing. The assay is described as follows: Inhibition of dopamine neuron firing in rats. The class given is in vivo. As to conditions: IP. The method, then: as §1
The mark [2] stands for this setting: read-out: Inhibition of Haloperidol Binding (IC50 nM).

T1 sequence (P20288 whole entry): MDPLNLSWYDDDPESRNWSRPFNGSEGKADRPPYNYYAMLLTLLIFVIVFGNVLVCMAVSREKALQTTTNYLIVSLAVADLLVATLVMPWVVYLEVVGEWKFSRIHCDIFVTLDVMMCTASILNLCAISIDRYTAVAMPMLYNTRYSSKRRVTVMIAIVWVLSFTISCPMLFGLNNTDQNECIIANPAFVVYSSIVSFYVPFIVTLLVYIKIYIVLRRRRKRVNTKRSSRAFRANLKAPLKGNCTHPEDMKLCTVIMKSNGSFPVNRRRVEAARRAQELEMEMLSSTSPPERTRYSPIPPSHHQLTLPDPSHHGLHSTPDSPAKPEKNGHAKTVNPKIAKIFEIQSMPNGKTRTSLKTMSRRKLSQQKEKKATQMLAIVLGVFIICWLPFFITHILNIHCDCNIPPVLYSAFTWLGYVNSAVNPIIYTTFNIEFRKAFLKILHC

One may read the inhibition in vivo as the share of the control response that was lost under treatment. A lower inhibition in vivo goes with a weak effect. One may read the ED50 as the dose that gives a 50% effect, or the effect in half of the subjects. Low readings indicate greater potency, high ones weaker potency. On to `Nc1ncc(CCN2CCN(c3ccccn3)CC2)s1` [Example 2, 5-[2-[4-(2-pyridinyl)-1-piperazinyl]ethyl]-2-thiazolamine], for which, in the assay on brain dopamine synthesis, 10 mg/kg produced 92% inhibition in vivo. This compound also showed an ED50 in assay [1] of 5.9 mg/kg.

One may read the IC50 as the concentration at which inhibition is half-maximal. As for `Nc1nc(CCCCN2CCN(c3ncccn3)CC2)cs1` [Example 1a, 4-[4-[4-(2-Pyrimidinyl)-1-piperazinyl]butyl]-2-thiazolamine], on haloperidol binding (setting [2]), the IC50 stood at 1060 nM. Moreover, the ED50 in assay [1] is above 30 mg/kg.

Regarding `Nc1ncc(CCN2CC=C(c3ccccc3)CC2)s1` [Example 2b, 5-[2-(3,6-Dihydro-4-phenyl-1(2H)-pyridinyl)ethyl]-2-thiazolamine], the inhibition in vivo at 10 mg/kg in the assay with brain dopamine synthesis stood at 25%. In assay [1], this compound returned a median effective dose (ED50) of 0.47 mg/kg.

Consider `Nc1nc(CCCCN2CCN(c3ccccn3)CC2)cs1` [Example 1k, 4-[4-[4-(2-Pyridinyl)-1-piperazinyl]-butyl]-2-thiazolamine], for which the IC50 at haloperidol binding (setting [2]) is 488 nM. The compound also registered an inhibition in vivo at 10 mg/kg in the assay on brain dopamine synthesis of 63%. For the same compound, it took a dose of 5.5 mg/kg to reach the 50% effect level in assay [1] (ED50).

By inhibition is commonly meant the share of the control response that was lost under treatment. In turn, `Nc1nc(CCCN2CCN(c3ccccn3)CC2)cs1` [Example 1i, 4-[3-[4-(2-Pyridinyl)-1-piperazinyl]-propyl]-2-thiazolamine] showed an inhibition at 10 µM at haloperidol binding of 100%. Moreover, in the assay with brain dopamine synthesis, testing at 10 mg/kg gave an inhibition in vivo of 43%. Also, the median effective dose (ED50) in assay [1] was 7.6 mg/kg.

`Cc1nc(N)sc1CCN1CCN(c2ccccn2)CC1` [Example 1h, 4-Methyl-5-[2-[4-(2-pyridinyl)-1-piperazinyl]ethyl]-2-thiazolamine]: the IC50 on haloperidol binding (setting [2]) turned out to be 75 nM. In addition, in the assay on brain dopamine synthesis, the inhibition in vivo at 1 mg/kg is 87%. The “Inhibition of Dopamine Neuron Firing in Rats” value (“Inhibition … in Rats” for short) with dopamine neuron firing (2.5 mg/kg) stood at 100%. Also, the 50% effect level in assay [1] (ED50) was put at a dose of 1.4 mg/kg.

On to `Cl.Cl.Nc1nc(CCCN2CC=C(c3ccccc3)CC2)cs1` [Example 1e, 4-[3-(3,6-Dihydro-4-phenyl-1(2H)-pyridinyl)propyl]-2-thiazolamine, dihydrochloride], for which, on haloperidol binding, the half-maximal inhibitory concentration (IC50) is 346 nM. The compound also yielded an inhibition in vivo at 10 mg/kg in the assay with brain dopamine synthesis of 44%. Besides, the “Inhibition … in Rats” value in the assay on dopamine neuron firing (2.5 mg/kg) was 78%. Further, the ED50 in assay [1] stood at 1.7 mg/kg.

The compound `Nc1nc(CCCN2CCN(c3ccccc3)CC2)cs1` [Example 1c, 4-[3-(4-Phenyl-1-piperazinyl)propyl]-2-thiazolamine] showed an inhibition at 10 µM on haloperidol binding of 40%. Besides, the ED50 in assay [1] is 2.4 mg/kg.

`Cc1nc(N)sc1CCN1CCN(c2ccccc2)CC1` [Example 1b, 4-Methyl-5-[2-(4-phenyl-1-piperazinyl)ethyl]-2-thiazolamine] had an inhibition at 10 µM at haloperidol binding of 100%. In the assay with dopamine neuron firing (10 mg/kg), the “Inhibition … in Rats” value was determined as 80%. In assay [1], this compound showed an ED50 of 1.5 mg/kg.

In assay [1], `Nc1ncc(CCN2CCN(c3ccccc3)CC2)s1` [Example 2a, 5-[2-(4-Phenyl-1-piperazinyl)ethyl]-2-thiazolamine] came in with an ED50 of 2.6 mg/kg.

`Nc1nc(CCCN2CCN(c3ncccn3)CC2)cs1` [Example 1g, 4-[3-[4-(2-Pyrimidinyl)-1-piperazinyl]-propyl]-2-thiazolamine]: the IC50 on haloperidol binding (setting [2]) came to 1600 nM. The 50% effective dose (ED50) in assay [1] was above 30 mg/kg.

`Cc1nc(N)sc1CCN1CC=C(c2ccccc2)CC1` [Example 1d, 5-[2-(3,6-dihydro-4-phenyl-1(2H)-pyridinyl)ethyl]-4-methyl-2-thiazolamine]: the IC50 on haloperidol binding (setting [2]) was determined as 400 nM. The compound also displayed an inhibition in vivo at 10 mg/kg with brain dopamine synthesis of 84%. For the same compound, the “Inhibition … in Rats” value with dopamine neuron firing (2.5 mg/kg) is reported as 70%. In assay [1], the ED50 was determined as 0.88 mg/kg.

As to `Cc1nc(N)sc1CCCN1CCN(c2ccccn2)CC1` [Example 1j, 4-Methyl-5-[3-[4-(2-pyridinyl)-1-piperazinyl]propyl]-2-thiazolamine], the IC50 on haloperidol binding (setting [2]) was 249 nM. Testing at 10 mg/kg in the assay with brain dopamine synthesis gave an inhibition in vivo of 100%. Further, the “Inhibition … in Rats” value in the assay with dopamine neuron firing (2.5 mg/kg) is 98%. For the same compound, the ED50 in assay [1] is 4.6 mg/kg.

As for `Cc1nc(N)sc1CCN1CCN(c2ncccn2)CC1` [Example 1f, 4-Methyl-5-[2-[4-(2-pyrimidinyl)-1-piperazinyl]ethyl]-2-thiazolamine], at haloperidol binding (setting [2]), the 50% inhibitory concentration (IC50) is 118 nM. Besides, in assay [1], the 50% effect level (ED50) was put at a dose of 1.4 mg/kg.

Take `Cc1nc(N)sc1CCCN1CCN(c2ncccn2)CC1` [Example 1, 4-Methyl-5-[3-[4-(2-pyrimidinyl)-1-piperazinyl]-propyl]-2-thiazolamine]: the IC50 on haloperidol binding (setting [2]) stood at 370 nM. In the assay with brain dopamine synthesis, this compound gave an inhibition in vivo at 1 mg/kg of 82%. Further, the “Inhibition … in Rats” value in the assay with dopamine neuron firing (2.5 mg/kg) is reported as 90%. Moreover, in assay [1], the ED50 was 6.3 mg/kg.
